# Results reported in patent US20260083769A1, “2-Aminopropane-1,3-Diol-Capped Cationic Peptoids for Nucleic Acid Delivery” (NUTCRACKER THERAPEUTICS, INC., priority 2022, published 2026).
# Entries after “also recorded” stand apart in the source; their conditions may differ. Where a SMILES comes first, the peptide text is derived from it. [ ]: non-standard residue; d: D form. N(2-ethylhexyl)Gly = CCCCC(CC)CNCC(=O)O; Gly(N-dodecyl) = CCCCCCCCCCCCNCC(=O)O; N(CH(CH2OH)2)Gly = O=C(O)CNC(CO)CO; NHexGly = CCCCCCNCC(=O)O
# Legend:
# BALB/c mice = test: Serum anti-RSV antibody (aRSV) after IV dose of aRSV mRNA delivery vehicles, IgG ELISA; assay type: in vivo; conditions: for serum levels of aRSV (secreted protein expression): BALB/c mice, IV, 0.75 mg/kg mRNA, after 24 hours, IgG ELISA; for secreted protein (serum aRSV) expression in vivo, comparison of monomer order isomers: Compound 31 versus Compound 41
# Description: For imaging studies, female BALB/c mice (6-8 weeks old) were obtained and acclimatized for a minimum of 3 days prior to experiments. The animals were maintained on a 12 hour light cycle in a temperature and humidity controlled room. A daily health check was performed as well as food and water check. For dosing, mice were injected with 2.5 μg fLuc mRNA-containing delivery vehicles intravenously in 100 μL total injection volume. At 6 hours post-injection, mice were anesthetized with isoflurane, and injected intraperitoneally with 30 mg/mL D-luciferin at a dose of 10 μL per gram bodyweight intraperitoneally. Imaging was done 10 minutes post D-luciferin injection using an IVIS® Spectrum Imaging System. Immediately after in vivo imaging, mice were terminally bled by cardiac puncture and euthanized. The organs of interest were harvested, placed in black 24-well plates, and imaged. Living Image® software was used to quantify the total photon flux in regions of interest. For secreted protein studies, mice were injected with aRSV mRNA-containing delivery vehicles intravenously in 100 μL total injection volume. Mice were euthanized after 24 hours, with serum collection at 6 and 24 hours post-injection. Serum was used to quantify secreted aRSV levels using ELISA following the manufacturer's recommendation for IgG using a standard curve generated from aRSV protein.
# To understand how the delivery vehicles disclosed herein (e.g., delivery vehicles comprising compounds of Formula (I)) performed as systemic delivery vehicles, the top four candidates for firefly luciferase expression from the optimized DOE model (Compounds 12, 41, 34, and 35) were evaluated for their ability to produce anti-RSV antibody in BALB/c mice. Anti-RSV was chosen as a model target due to the availability of therapeutic benchmarking information and sequence availability. Delivery vehicles comprising aRSV were formulated from two mRNA molecules encoding the heavy and light chain at a 2:1 mass ratio. All delivery vehicles were below 120 nm in size with encapsulation greater than 85% (Table 7).
# Delivery vehicles were dosed intravenously in BALB/c mice at a total dose of 0.75 mg/kg mRNA and serum levels of aRSV were compared after 24 hours by an IgG ELISA.
# [1] = Percent encapsulated mRNA, RiboGreen assay; assay type: physicochemical; conditions: Table 5; delivery vehicle comprising the peptoid, Formulation D22, fLuc mRNA
# Outline: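 Modified RiboGreen fluorescence assay on Fluc mRNA formulations diluted to 500 ng/ml in Tris-EDTA. Samples were read with and without Triton X-100 lysis (2% for 10 min in one protocol). Percent encapsulation was derived from the fluorescence ratio of intact versus lysed particles.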
# [2] = Zeta potential of delivery vehicles; assay type: physicochemical; conditions: Table 5; delivery vehicle, pH 7 buffer; in mV (unit assumed)
# Description: In one particular instance, the size and polydispersity (PDI) of delivery vehicles was measured by dynamic light scattering in PBS using a DynaPro® plate reader III. The zeta potential of delivery vehicles was determined using Nano-ZS™ particle analyzer. Zeta sample was diluted to 30 uM total lipid in a weakly buffered solution of 10 mM HEPES, 10 mM MES, 10 mM ammonium acetate pH 7. Measurements were collected in duplicate for over 30 run with the voltage manually set to […]
Compound,serum levels of aRSV (secreted protein expression) (BALB/c mice),% Encapsulation [1] [%],Zeta Potential [2],"secreted protein (serum aRSV) expression in vivo, comparison of monomer order isomers (BALB/c mice)",serum levels of aRSV (secreted protein expression) (BALB/c mice; 0.75 mg/kg),"dependence of serum aRSV titers on injected dose (BALB/c mice; Compound 41 in Formulation D22, 0.3, 0.75, and 1.5 mg/kg)","time aRSV titers were observed in the serum (BALB/c mice; Compound 41 in Formulation D22, mice, post-dosing) [days]"
CCCCCCN(CC(N)=O)C(=O)CN(CC(CC)CCCC)C(=O)CN(CC(CC)CCCC)C(=O)CN(CCCCCC)C(=O)CN(CC(CC)CCCC)C(=O)CN(CC(CC)CCCC)C(=O)CNC(CO)CO (stereo not drawn) [Compound 12] (H-[N(CH(CH2OH)2)Gly][N(2-ethylhexyl)Gly][N(2-ethylhexyl)Gly][NHexGly][N(2-ethylhexyl)Gly][N(2-ethylhexyl)Gly][NHexGly]-NH2),lowest aRSV expression of the top 4 candidates,97.4,−8.68,,,,
CCCCCCCCCCCCN(CC(=O)N(CC(=O)N(CC(=O)N(CCCCCCCCCCCC)CC(=O)N(CC(=O)N(CC(N)=O)CC(CC)CCCC)CC(CC)CCCC)CC(CC)CCCC)CC(CC)CCCC)C(=O)CNC(CO)CO (stereo not drawn) [Compound 31] (H-[N(CH(CH2OH)2)Gly][Gly(N-dodecyl)][N(2-ethylhexyl)Gly][N(2-ethylhexyl)Gly][Gly(N-dodecyl)][N(2-ethylhexyl)Gly][N(2-ethylhexyl)Gly]-NH2),,86.9,−11.2,within error,,,
CCCCCCCCCCCCN(CC(=O)N(CC(N)=O)CC(CC)CCCC)C(=O)CN(CCCCCC)C(=O)CN(CC(CC)CCCC)C(=O)CN(CCCCCCCCCCCC)C(=O)CN(CCCCCC)C(=O)CNC(CO)CO (stereo not drawn) [Compound 34] (H-[N(CH(CH2OH)2)Gly][NHexGly][Gly(N-dodecyl)][N(2-ethylhexyl)Gly][NHexGly][Gly(N-dodecyl)][N(2-ethylhexyl)Gly]-NH2),highest levels of secreted protein expression,71.2,−9.58,,,,
CCCCCCCCCCCCN(CC(=O)N(CC(=O)N(CC(=O)N(CCCCCCCCCCCC)CC(=O)N(CC(N)=O)CC(CC)CCCC)CC(CC)CCCC)CC(CC)CCCC)C(=O)CN(CC(CC)CCCC)C(=O)CNC(CO)CO (stereo not drawn) [Compound 41] (H-[N(CH(CH2OH)2)Gly][N(2-ethylhexyl)Gly][Gly(N-dodecyl)][N(2-ethylhexyl)Gly][N(2-ethylhexyl)Gly][Gly(N-dodecyl)][N(2-ethylhexyl)Gly]-NH2),,94.2,−5.38,within error,highest levels of secreted protein expression; also recorded: highest overall aRSV titers,generally linear dependence on injected dose,> 5
